Test results reported in patent US4609667A, “Inhibitor of mammalian collagenase and elastase” (American Home Products Corporation, priority 1985, dated 1986).

Experiments:
Type in all cases: biochemical
[1] = target: Collagenase produced by normal human leukocytes or by normal human skin fibroblasts; experiment: in vitro collagenase inhibition assay (14C-acetylated collagen hydrolysis); conditions: pH 7.4, 35° C., one to five hours
Procedure: The compound N-[[(5-chloro-2-benzothiazolyl)thio]-phenylacetyl]-L-cysteine is tested for collagenase inhibition in an in vitro assay based on the procedure described by A. Sellers and J.J. Reynolds, Biochem. J., 167 (1977) pp. 353-60.
Collagenase produced by normal human leukocytes or by normal human skin fibroblasts in cell cultures is purified by adsorption onto a collagen Sepharose 4B column. Prior to use in the assay, the zymogen is activated with trypsin, while the trypsin in turn, is inactivated with an excess of soybean trypsin inhibitor.
According to the assay procedure, microfuge tubes are prepared containing a total of about 150 μl. of solution containing: 25 μl. collagen (^14 C-acetylated collagen--2 mg./ml in 0.01% acetic acid); 25 μl. of 0.15 M tris/0.015 M CaCl2, pH 7.4; 75 μl. collagenase in tris buffer (0.05 M tris/0.005 M CaCl2, pH 7.4); and 25 μl. of collagenase inhibitor in tris buffer. Samples and controls are incubated at 35° C. for one to five hours depending upon potency of the enzyme. At the end of the reaction period, the tubes are spun down in a Beckman Microfuge. A 25 μl. aliquot of each tube is then assayed in a scintillation counter. Since native collagen forms insoluble fibrils under these conditions, radioactivity detected in the supernate is a measure of collagen hydrolysis. […]

human leukocyte elastase [2] = target: T1, human leukocyte elastase (Homo sapiens, UniProt P08246); experiment: human elastase inhibition in vitro assay, Method 1 (succinyl-L-alanyl-L-alanyl-L-alanyl-p-nitroanilide substrate)
T1 construct: A crude elastase preparation is made by homogenizing human leukocyte granules; from tissue; host or cells: human leukocyte granules (homogenized, supernatant dialyzed; crude preparation)
T1 sequence (P08246 30-247 limits assumed): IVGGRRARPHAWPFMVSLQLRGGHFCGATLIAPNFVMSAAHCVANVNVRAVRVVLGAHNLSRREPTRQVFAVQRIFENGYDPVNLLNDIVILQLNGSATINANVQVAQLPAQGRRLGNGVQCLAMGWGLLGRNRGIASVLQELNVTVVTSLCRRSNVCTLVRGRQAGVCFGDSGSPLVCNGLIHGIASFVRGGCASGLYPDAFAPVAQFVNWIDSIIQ
Procedure: (§1) The compound N-[[5-chloro-2-benzothiazolyl)thio]-phenylacetyl]-L-cysteine is tested for human elastase inhibition in an in vitro assay which is carried out as follows:
(§2) A crude elastase preparation is made by homogenizing human leukocyte granules [prepared according to the method of R. J. Baryk and J. Travis, Biochemistry, 15, (4), 837 (1976)], spinning and dialyzing the supernates against cold 0.05 M trisHCl/0.05 M Na Cl at a pH 8.0.
(§3) This elastase preparation is used in two assay methods to test for elastase inhibition.
400 μl of the elastase preparation, 10 μl (0.0625 mg) of succinyl-L-alanyl-L-alanyl-L-alanyl-p-nitroanilide (the enzyme substrate), 207 μl of buffer and varying amounts of the elastase inhibitor under testing are incubated at 37° C. for 19 hours. The hydrolysis is measured by use of high pressure liquid chromatography (HPLC) or by the spectrophotometric measurement of the release of p-nitroaniline at a wavelength of 410 nm.

human leukocyte elastase [3] = target: T1, human leukocyte elastase; experiment: human elastase inhibition in vitro assay, Method 2 (elastin-Congo red complex); conditions: 20 μg of compound; 37° C., 18 hours; Standard (complete hydrolysis by hog pancreatic elastase) 1.0; No Inhibitor 0.104
Procedure: as §1, §2, §3
In this method, the substrate used is an elastin-Congo red complex. Hydrolysis of this substrate by elastase releases Congo red, which is assayed by HPLC. The assay system also contains buffer and either 20 μg of the compound of Example 1, or no compound. The system is incubated at 37° C. for 18 hours. The standard sample represents the complete hydrolysis of the elastin-Congo red complex by hog pancreatic elastase.

IC50 ([1]; Experiment 1: Collagen I as substrate): 5.7 µM | IC50 ([1]; Experiment 2: Collagen II as substrate): 12.5 µM | IC50 (human leukocyte elastase [2]; 37° C., 19 hours, HPLC or 410 nm): 4.78 µM | inhibitory effect on the enzymatic activity of human leukocyte elastase (in words) (human leukocyte elastase [2]; conclusion from Methods 1 and 2): strong inhibitory effect | Relative Release of Congo Red (human leukocyte elastase [3]): 0.000
SMILES: O=C(N[C@@H](CS)C(=O)O)C(Sc1nc2cc(Cl)ccc2s1)c1ccccc1 (stereo partly drawn) [Example 1, N-[[(5-chloro-2-benzothiazolyl)thio]phenylacetyl]-L-cysteine]
